The nature of data set [1]: Solubility parameter δ of the acid. The settings on record: product for the acid.
For data set [2] the following is noted: cited from earlier work.
Data set [3] in a line: ΔT = Tc(cooling) - Tn(heating), DSC. It is filed as physicochemical. The settings on record: 1% salt in PET, 2-roll mill 270 °C 5 min; 10 °C/minute. The method, then:
An alternative method for assessing the effectiveness of nucleation of an additive is to compare the difference between the value of the crystallisation peak on cooling (Tc) with that on heating (Tn) for a composition containing an ionisable salt. The value obtained from this comparison, Tc(cooling) -Tn(heating) is termed ΔT. […] Samples of polyester together with 1% of the salt under test were mixed in a 2-roll mill at 270° C. for 5 minutes. The sample produced was pressed into 2 mm thick sheets at 270° C. for 3 minutes and then cooled to room temperature. 10 mg of the sample was placed in a capsule and rapidly heated to 290° C. After maintaining this temperature for 1 minute the capsule was quenched in water. The crystallisation peak temperatures on heating (Tn) and cooling (Tc) were determined using heating and cooling rates of 10° C./minute on a Perkin Elmer DSC 2 machine.

Data set [4] is described as follows: Half-crystallisation time (t1/2), isothermal DSC. It is filed as physicochemical. The method, then:
A DSC 2 Perkin Elmer scanning calorimeter was used.
10 mg of the sample of polymer material are placed in a capsule and introduced into the apparatus, wherein the sample is quickly heated to a temperature of 290° C. at which it is maintained during 1 minute.
The molten polymer material is then very quickly cooled by means of liquid air (at a rate of 320° C. per minute) until the crystallisation temperature is reached.
The crystallisation isotherm is registered on a temperature-time graph and the peak appearing on the registered isotherm is taken as the half-crystallisation time (t1/2).

A short description of data set [5]: Degradation constant K (melt degradation performance). It is filed as physicochemical. More on the design: unit not given here. The settings on record: 1% salt in PET, 2-roll mill 270 °C 5 min; molten state 290 °C. As for the experimental part: The melt degradation performance is a measure of the extent of degradation under molten conditions. A convenient method of quantifying the performance is by measuring the "K value". A method for determining this value in the molten state using an Instron Capillary rheometer is given in a paper by J. Devaux et al in Makromol.
This method is carried out on samples prepared by reacting the salt with the polyester on a 2 roll-mill at a temperature above the melting point of the polyester for 5 minutes and then pressing the product obtained into a 2 mm thick sheet using the same temperature for 3 minutes before cooling to room temperature. The method is described for polyethylene terephthalate but can be readily adapted for other polyesters.
For polyethylene terephthalate the K value in the presence of salt should be less than 60.

Setting [6] is: acid from which the salt is derived, in water.
Setting [7] is: 110 °C, 1% salt in PET, 2-roll mill 270 °C 5 min, after melting 1 minute at 290 °C.
Where [8] appears, read: 120 °C, 1% salt in PET, 2-roll mill 270 °C 5 min, after melting 1 minute at 290 °C.

Where two headings read alike, the source gives them in different places.

For the compound `O=C(O)c1cccc(O)c1` [metra-hydroxy benzoic acid], in data set [1], the “δ × pKH.sbsb.2O” value turned out to be 54. In data set [2] (setting [6]), the pKH.sbsb.2O was 3.9. In addition, in data set [3], the ΔT was 91 °C. Also, the “t1/2 (sec) 110° C.” value in data set [4] (setting [7]) came out at 165 s. In addition, the “t1/2 (sec) 120° C.” value in data set [4] (setting [8]) is 55 s. The K in data set [5] came out at 86.
Take `O=C(O)c1ccc(F)cc1` [para fluorobenzoic acid]: in data set [1], the “δ × pKH.sbsb.2O” value is given as 50. Moreover, the pKH.sbsb.2O in data set [2] (setting [6]) is 4.1. The ΔT in data set [3] worked out at 104 °C. In addition, the “t1/2 (sec) 110° C.” value in data set [4] (setting [7]) came to 70 s. Besides, the “t1/2 (sec) 120° C.” value in data set [4] (setting [8]) is 38 s. Further, the K in data set [5] is on record as 60.
`O=C(O)c1ccc([N+](=O)[O-])cc1` [para-nitrobenzoic acid]: the “δ × pKH.sbsb.2O” value in data set [1] came out at 46. Further, the pKH.sbsb.2O in data set [2] (water) was 3.4. The ΔT in data set [3] worked out at 102 °C. Besides, the “t1/2 (sec) 110° C.” value in data set [4] (setting [7]) amounted to 75 s. Besides, in data set [4] (setting [8]), the “t1/2 (sec) 120° C.” value was 54 s. Moreover, the K in data set [5] stood at 79.
For the compound `O=C(O)c1ccc(Oc2ccccc2)cc1` [para-oxyphenylbenzoic acid], the “δ × pKH.sbsb.2O” value in data set [1] is 47. Besides, in data set [2] (setting [6]), the pKH.sbsb.2O is recorded as 3.5. Further, the ΔT in data set [3] was 105 °C. For the same compound, in data set [4], the “t1/2 (sec) 110° C.” value came out at 73 s and the “t1/2 (sec) 120° C.” value is 38 s. The K in data set [5] came to 40.

The values above are taken from patent US4393178A, “Fast crystallizing polyester compositions” (priority 1979, dated 1983).
